The numbers were not newly measured in patent US20130053433A1, “FATTY ACID DERIVATIVES AND ANALOGS OF DRUGS” (The University of North Carolina at Chapel Hill, priority 2010, published 2013), which cites them from elsewhere.

Broadly, the Kd is a measure of binding affinity in units of concentration.

This data set deals with albumin (Homo sapiens, UniProt P02768).
Sequence of albumin (P02768 25-609): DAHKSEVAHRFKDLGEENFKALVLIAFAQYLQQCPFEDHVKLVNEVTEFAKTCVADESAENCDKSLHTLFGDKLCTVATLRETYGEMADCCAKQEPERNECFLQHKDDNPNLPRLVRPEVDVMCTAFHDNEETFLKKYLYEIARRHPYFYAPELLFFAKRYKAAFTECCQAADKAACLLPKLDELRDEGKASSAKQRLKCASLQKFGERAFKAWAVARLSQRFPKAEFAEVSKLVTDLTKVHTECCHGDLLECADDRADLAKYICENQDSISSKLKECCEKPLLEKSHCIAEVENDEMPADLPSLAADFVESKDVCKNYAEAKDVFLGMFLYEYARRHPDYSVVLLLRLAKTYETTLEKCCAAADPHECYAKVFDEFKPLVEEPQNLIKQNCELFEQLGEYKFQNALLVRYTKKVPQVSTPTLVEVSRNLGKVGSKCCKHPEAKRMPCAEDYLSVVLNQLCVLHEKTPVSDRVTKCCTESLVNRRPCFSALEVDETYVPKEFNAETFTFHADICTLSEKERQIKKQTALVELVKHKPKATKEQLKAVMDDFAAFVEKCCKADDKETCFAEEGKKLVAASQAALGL

With `CCCCCCCCCCCCCCCCCC(=O)O` [stearic acid], the Kd for albumin entry (depending on total fatty acid concentration, Curry, Brick et al. 1999) was “in the range of μM to nM”.

Take `CC(=O)O[C@H]1C(=O)[C@@]2(C)[C@H]([C@H](OC(=O)c3ccccc3)[C@]3(O)C[C@H](OC(=O)[C@H](O)[C@@H](NC(=O)c4ccccc4)c4ccccc4)C(C)=C1C3(C)C)[C@]1(OC(C)=O)CO[C@@H]1C[C@@H]2O` [PTX, paclitaxel]: the dissociation constant (Kd) (read-out: dissociation constant Kd for albumin, Paal, Muller et al. 2001) was roughly 10 µM.
